# Measured values reported in ChEMBL document CHEMBL1150865, “Ma'iliohydrin, a cytotoxic chamigrene dibromohydrin from a Philippine Laurencia species” (2001).
# Assays:
# [1] = Growth inhibition of human NCI60 cells; type: functional
# [2] = test system: NCI/ADR-RES; experiment: Growth inhibition of human NCI/ADR-RES cells; type: functional
smiles,measurement,setting,value
C=C1C[C@@H](O)[C@@H](Br)C(C)(C)[C@@]12C=C[C@@](O)(C(Br)Br)CC2 [MAILIOHYDRIN],GI50,[1],10 µM
same,GI50,[2],0.01 µM
